# Source: patent US7799788B2, “Method of treating chronic myelogenous leukemia cells” (University of South Florida, priority 2006, dated 2010)
# Tests used:
# [1] = tested on: normal bone marrow progenitor cells (NBMC's); assay: Loss of survival of normal bone marrow progenitor cells; assay type: cell-based
# [2] = tested on: primary IM-resistant CML cells; assay: Percentage non-viable cells by trypan blue uptake, primary IM-resistant CML-BC cells; assay type: cell-based, human; details: 48 hours
# Protocol: FIG. 6. […] Following this, the percentages of non-viable cells for each drug alone or drug combination were determined by trypan blue uptake in hemocytometer. Values represent the percentage of non-viable cells from each condition as compared to untreated cells.
# Primary CML cells. CML cells from the peripheral blood and/or bone marrow of eleven patients who had met the clinical criteria of IM-resistant advanced phase of CML were harvested and purified, as previously described. Informed consents were signed by all patients to allow use of their cells for these experiments, as part of a clinical protocol approved by the University of South Florida Institutional Review Board (IRB).
# Cells were stained with trypan blue (Sigma, St. Louis, Mo.).
# K562 cells = assay: Apoptosis by Annexin-V staining (flow cytometry), K562 cells; assay type: cell-based, human; details: 10 nM dasatinib, 48 hours
# Protocol: Untreated or drug-treated cells were stained with Annexin-V (Pharmingen, San Diego, Calif.) and propidium iodide (PI) and the percentage of apoptotic cells were determined by flow cytometry. […] The percentage of apoptotic cells was determined by flow cytometry. The combination index (CI) for each drug combination was obtained by median dose effect of Chou and Talalay utilizing the combination index equation within the commercially available software Calcusyn (Biosoft, Ferguson, Mo.).
# LAMA-84 cells = assay: Apoptosis by Annexin-V staining (flow cytometry), LAMA-84 cells; assay type: cell-based, human; details: 10 nM dasatinib, 48 hours
# Protocol: FIG. 1D. […] Following treatment, the percentages of annexin-V-stained apoptotic cells were measured by flow cytometry. Values represent the mean of three experiments±S.E.M.
# Bcr-Abl-expressing, CML LAMA-84 and K562 cells were obtained and maintained in culture, as previously described. […] Following these treatments, cells or cell pellets were washed free of the drug(s) prior to the performance of the studies.
# BaF3/Bcr-AblE255K cells = assay: Apoptosis by Annexin-V staining, BaF3/Bcr-AblE255K cells; details: 2.0 μM vorinostat, 48 hours
# Protocol: After treatment, the percentage of Annexin-V-stained apoptotic cells was determined by flow cytometry.
# BaF3/Bcr-Abl, BaF3/Bcr-AblE255K, and BaF3/Bcr-AblT315I cells were treated with the indicated concentrations of vorinostat for 48 hours. After treatment, the percentage of Annexin-V-stained apoptotic cells was determined by flow cytometry.
# Following treatment, the percentage of annexin-V-stained apoptotic cells was determined by flow cytometry.
# Stably expressing cells were then further selected by removal of IL-3.
# Untreated or drug-treated cells were stained with Annexin-V (Pharmingen, San Diego, Calif.) and propidium iodide (PI) and the percentage of apoptotic cells were determined by flow cytometry. […] The percentage of apoptotic cells was determined by flow cytometry.
Structure (SMILES),effect on NBMC ([1]; dasatinib up to 20 nM),"loss of cell viability, samples #1 to #9 ([2]; IM-resistant primary CML cells, mutational status not determined)",apoptosis of K562 cells (K562 cells) [%],apoptosis of LAMA-84 cells (LAMA-84 cells),"loss of survival of NBMC ([1]; 2.0 μM vorinostat, mean of 2 samples) [%]","loss of cell viability, all samples including #10 and #11 ([2]; 2.0 μM vorinostat alone)",apoptosis of BaF3/Bcr-AblE255K cells (BaF3/Bcr-AblE255K cells)
"Cc1nc(Nc2ncc(C(=O)Nc3c(C)cccc3Cl)s2)cc(N2CCN(CCO)CC2)n1 [dasatinib, N-(2-chloro-6-methylphenyl)-2-[[6-[4-(2-hydroxyethyl)-1-piperazinyl]-2-methyl-4-pyrimidinyl]amino]-5-thiazolecarboxamide]",no effect,induced loss of cell viability in a dose dependent manner,~50,approximately 90%,,,
"O=C(CCCCCCC(=O)Nc1ccccc1)NO [vorinostat, suberoylanilide hydroxamic acid]",,,,,15.9,induced loss of cell viability in all of the samples,approximately 40%
